Where “and” joins values, the source holds several entries; their conditions need not be identical. Equal values may be shown once. Read-outs that look alike come from different tables or passages of the source.
Tests used:
[1] = Pharmacokinetic studies in mice (IV and PO); assay type: in vivo, female CD-1 mice; details: female; for AUC(0-inf): read-out: AUC (infinity)
Procedure: PK parameters for the lead compounds were determined using three mice per data point (Supplementary Methods 6.1).
Blood samples were collected from terminal cardiac puncture at 0.08 (IV only), 0.25, 0.5, 1 (PO only), 2, 4, 8 and 24 hour time points. The whole blood was centrifuged to obtain plasma. Brains were also collected following cardiac perfusion from both sets of animals at 2 hours. Analysis of the biological samples was carried out by the company Selcia. Plasma proteins were precipitated by addition of PBS (1 volume) followed by 3 volumes of acetonitrile containing internal standard (verapamil). Following filtration through a protein precipitation plate the eluent was dried under nitrogen and re-suspended in mobile phase prior to analysis. Individual brains were homogenised in PBS and diluted to 10% w/v and divided into aliquots consisting of brain homogenate (1 volume, 0.3 ml) and 3 volumes (0.9 ml) of acetonitrile containing internal standard. Samples were centrifuged and supernatants removed and taken through a protein precipitation plate alongside an appropriate standard. Eluents were dried under nitrogen and re-suspended in mobile phase prior to analysis. Eluents were analysed by LC-MS/MS using a Phenomenex Gemini NX column (C18,30 x 2.1 mm, 3 micron). Analysis of the data was carried out using PK solutions software.

[2] = Plasma protein binding, mouse plasma; assay type: in vitro ADME
Procedure: A HepG2 cytotoxicity assay was used to determine a cellular selectivity index. HepG2 cells were seeded into 96-well plates in EMEM medium. Compounds were assessed for their effect upon cellular viability (Supplementary Methods 5.1). Inhibition of CYP450 was determined using kits from BD Biosciences (Supplementary Methods 5.2). Metabolic stability was determined using mouse […] tested at a single concentration of 5 µM. Plasma protein binding was determined using mouse and human plasma at a single concentration of 10 µM (Supplementary Methods 5.4). All PK studies in mice were carried out by Pharmidex (Supplementary Methods 6.1).
Compounds were tested for protein binding using mouse and human plasma at a single concentration of 10 µM and measured by equilibrium dialysis between plasma and buffer. The amount of parent was determined on both sides of the membrane after incubating for 4 hours at 37 °C. The samples were crashed with acetonitrile and put through protein precipitation plates. The eluent was analysed by LC/MS or LC/MS/MS. Output was percentage bound.

[3] = CD-1, mouse, plasma, intravenous, 1 mg/kg, 1 mg/kg IV bolus, mouse (female, CD-1), read-out: Plasma concentration, Mean
[4] = CD-1, mouse, plasma, intravenous, 1 mg/kg, 1 mg/kg IV bolus, mouse (female, CD-1), read-out: Plasma concentration, individual animal
[5] = CD-1, mouse, plasma, oral, 5 mg/kg, 5 mg/kg oral dose (PO), mouse (female, CD-1), read-out: Plasma concentration, Mean
[6] = CD-1, mouse, plasma, oral, 5 mg/kg, 5 mg/kg oral dose (PO), mouse (female, CD-1), read-out: Plasma concentration, individual animal
[7] = CD-1, plasma, mouse, PO 5 mg kg^−1

## CN(C)CCn1ccc2c(ccn2Cc2ccc(Cl)c(Cl)c2)c1=O [CTCB-405, 1-[(3,4-Dichlorophenyl)methyl]-5-[2-(dimethylamino)ethyl] pyrrolo[3,2-c]pyridin-4-one]
[1]; [3]
  concentration at 0.5 h: 50.1 ng/mL and 138 nM
  concentration at 4 h: 9.23 ng/mL and 25.3 nM
  concentration at 8 h: 3.28 ng/mL and 9 nM
[1]; [4]
  concentration at 0.5 h: 136 nM and 43 ng/mL
  concentration at 8 h: 7 nM and 2.5 ng/mL
[1]; CD-1, mouse, plasma, intravenous, 1 mg/kg, 1 mg/kg IV bolus, mouse (female, CD-1)
  concentration at 2 h: 27.6 ng/mL and 75.7 nM
[1]; [5]
  concentration at 0.25 h: 200 ng/mL and 548 nM
  concentration at 0.5 h: 103 ng/mL and 283 nM
  concentration at 4 h: 89 ng/mL and 244 nM
  concentration at 8 h: 8.2 ng/mL and 22.5 nM
[1]; [6]
  concentration at 0.25 h: 155 ng/mL and 426 nM
  concentration at 0.5 h: 105 ng/mL and 288 nM
  concentration at 4 h: 94.3 ng/mL and 259 nM
  concentration at 8 h: 7.3 ng/mL and 20 nM
[1]; CD-1, mouse, plasma, oral, 5 mg/kg, 5 mg/kg oral dose (PO), mouse (female, CD-1), 1 h
  concentration at 1 h: 153 ng/mL and 421 nM
[1]; CD-1, mouse, plasma, oral, 5 mg/kg, 5 mg/kg oral dose (PO), mouse (female, CD-1)
  concentration at 2 h: 208 ng/mL and 572 nM
[1]; CD-1, plasma, mouse, IV 1 mg kg^−1
  AUC(0-inf): 260 ng·h/mL
[1]; CD-1, plasma, mouse, IV 1 mg kg^−1, read-out: CL/kg (converted)
  clearance: 63.3 mL/min/kg
[1]; CD-1, plasma, mouse, IV 1 mg kg^−1, read-out: Elimination t1/2 (converted)
  half-life: 162 min
[1]; CD-1, plasma, mouse, IV 1 mg kg^−1, read-out: Vd (area)
  Vd: 12.3 L/kg
[1]; [7]
  Cmax: 206 ng/mL
  Tmax: 18 min
  AUC(0-inf): 704 ng·h/mL
[1]; CD-1, plasma, mouse, PO 5 mg kg^−1 vs IV 1 mg kg^−1, read-out: Bioavailability (F%)
  bioavailability: 54%
[2]; 10 µM, equilibrium dialysis, read-out: Mouse plasma protein binding fu(%)
  fraction unbound at 4 h, 10 µM: 0.058
[2]; percentage bound, read-out: mouse plasma protein binding value (converted)
  fraction unbound at 4 h, 10 µM: 0.06
